Publication PMC6315694, “Synthesis of Pseudellone Analogs and Characterization as Novel T-type Calcium Channel Blockers” (Marine Drugs, 2018)

Assays:
[1] = target: T1, N-type CaV2.2 (Homo sapiens, UniProt Q00975); experiment: HVA calcium channel FLIPR assay, N-type (SH-SY5Y cells); format: cell-based; details: SH-SY5Y, 10 µM nifedipine present, N = 3, mean ± SEM, read-out: IC50 CaV2.2 (HVA CaVs)
T1 construct: endogenous in cells
Description: (§1) The human embryonic kidney 293 (HEK 293) cell lines (from Emmanuel Bourinet, Montpellier, France) stably expressing CaV3.2 or CaV3.3 were cultured under 5% carbon dioxide at 37 °C in Dulbecco’s Modified Eagle Medium (DMEM) Glutamax (Gibco, Life Technologies, Carlsbad, CA, USA) supplemented with 10% (v/v) fetal bovine serum (FBS), 100 U/mL penicillin, 100 μg/mL streptomycin (Gibco, Life Technologies), and 750 μg/mL geneticin (G418) (Gibco, Life Technologies). The Chinese Hamster Ovary (CHO) cell lines (Emmanuel Bourinet, Montpellier, France) expressing CaV3.1 were cultured under 5% carbon dioxide at 37 °C in Alpha Minimum Essential Media (MEM) Glutamax (Gibco, Life Technologies), supplemented with 10% (v/v) fetal bovine serum (FBS) and 300 μg/mL geneticin (G418) (Gibco, Life Technologies). The human neuroblastoma SH-SY5 Y cells (Victor Diaz, Goettingen, Germany) were cultured under 5% carbon dioxide at 37 °C in RPMI 1640 antibiotic-free medium (Invitrogen, Carlsbad, CA, USA), supplemented with 15% FBS and 2 mM GlutaMAX™ (Invitrogen). D-PBS (Gibco, Life Technologies) was used to wash the cells, and 0.25% Trypsin-EDTA (Gibco, Life Technologies) was used to detach cells from the flask surface. They were split in a ratio of 1:5 (ideally 1000 cells/cm^2) when they reached 70%–80% confluence (every 2–3 days). Transiently transfected CaV3.1HEK293 T cells were used in FLIPR Assays. HEK 293 T cells were cultured under 5% carbon dioxide at 37 °C in DMEM supplemented with 10% (v/v) FBS. D-PBS was used to wash the cells, and 0.25% Trypsin-EDTA was used to detach cells from the flask surface. The cells were split and seeded at 6 million cells per T175 flask, to reach 70%–80% confluence after 24 h. The next day, 12 μg DNA of human CaV3.1 was incubated in 900 μL serum-free DMEM with 36 μL FuGENE HD transfection reagent (Promega Corporation, Madison, WI, US) (1:3 DNA/Fugene ratio) for 20 min, and then the mixture was added into the cell flask slowly, drop by drop. After the transfection, the cells were cultured under 5% carbon dioxide at 37 °C for 24 h and then moved to a 28 °C incubator.
SH-SY5Y cells were seeded into 384-well black wall clear bottom plates at a density of 15,000 cells per well, resulting in 90%–95% confluence after 24 h. The media were then removed from the wells and replaced with 20 μL of 10% calcium 4 dye (Molecular Devices) in physiological salt solution (PSS) (containing 5.9 mM KCl, 1.4 mM MgCl2, 10 mM HEPES, 1.2 mM NaH2 PO4, 5 mM NaHCO3, 140 mM NaCl, 11.5 mM glucose, and 1.8 mM CaCl2, pH 7.4) with 0.1% BSA. […] Positive control on the first reagent plate contained 15 μL of PSS (0.1% BSA), whereas PSS (0.1% BSA) containing 1 µM CVID and 10 µM nifedipine (final concentration) was used as a negative control. The fluorescence readings were recorded and converted as described previously, and agonist containing 90 mM KCl + 5 mM CaCl2 was used in the second addition.
Data were plotted and analyzed using GraphPad Prism v7.0 (GraphPad Software Inc., San Diego, CA, USA). A four-parameter logistic Hill equation with variable Hill coefficients was fitted to the data for concentration-response curves. Data are means ± SEM of n independent experiments. Statistical analysis was performed with a paired Student’s t-test with statistical significance at p < 0.05.

[2] = target: recombinant hCaV3.3 channels (Homo sapiens, UniProt Q9P0X4); experiment: Whole-cell patch-clamp QPatch 16 X, CaV3.3; format: cell-based
Description: as §1
(§2) Whole-cell patch-clamp experiments were performed on an automated electrophysiology platform QPatch 16 X (Sophion Bioscience A/S, Ballerup, Denmark) in single-hole configuration using 16-channel planar patch chip QPlates (Sophion Bioscience A/S). The extracellular recording solution contained, in mM: TEACl 157, MgCl2 0.5, CaCl2 5, and HEPES 10; pH 7.4 adjusted with TEAOH; and osmolarity 320 mOsm. The intracellular pipette solution contained, in mM: CsF 140, EGTA 1, HEPES 10, and NaCl 10; pH 7.2 adjusted with CsOH; and osmolarity 325 mOsm. […]
(§3) Data were plotted and analyzed using GraphPad Prism v7.0 (GraphPad Software Inc., San Diego, CA, USA). […]

[3] = tested on: L-type calcium channel (CaV1); experiment: HVA calcium channel FLIPR assay, L-type (SH-SY5Y cells); format: cell-based, human; details: 1 µM CVID present, N = 3, mean ± SEM, read-out: IC50 CaV1 (HVA CaVs)
Description: as §1
SH-SY5Y cells were seeded into 384-well black wall clear bottom plates at a density of 15,000 cells per well, resulting in 90%–95% confluence after 24 h. […] The fluorescence readings were recorded and converted as described previously, and agonist containing 90 mM KCl + 5 mM CaCl2 was used in the second addition.
as §3

[4] = target: recombinant hCaV3.2 channels (Homo sapiens, UniProt O95180); experiment: Whole-cell patch-clamp QPatch 16 X, CaV3.2; format: cell-based
Description: as §1, §2, §3

recombinant hCaV3.3 channels, sequence (Q9P0X4 whole entry): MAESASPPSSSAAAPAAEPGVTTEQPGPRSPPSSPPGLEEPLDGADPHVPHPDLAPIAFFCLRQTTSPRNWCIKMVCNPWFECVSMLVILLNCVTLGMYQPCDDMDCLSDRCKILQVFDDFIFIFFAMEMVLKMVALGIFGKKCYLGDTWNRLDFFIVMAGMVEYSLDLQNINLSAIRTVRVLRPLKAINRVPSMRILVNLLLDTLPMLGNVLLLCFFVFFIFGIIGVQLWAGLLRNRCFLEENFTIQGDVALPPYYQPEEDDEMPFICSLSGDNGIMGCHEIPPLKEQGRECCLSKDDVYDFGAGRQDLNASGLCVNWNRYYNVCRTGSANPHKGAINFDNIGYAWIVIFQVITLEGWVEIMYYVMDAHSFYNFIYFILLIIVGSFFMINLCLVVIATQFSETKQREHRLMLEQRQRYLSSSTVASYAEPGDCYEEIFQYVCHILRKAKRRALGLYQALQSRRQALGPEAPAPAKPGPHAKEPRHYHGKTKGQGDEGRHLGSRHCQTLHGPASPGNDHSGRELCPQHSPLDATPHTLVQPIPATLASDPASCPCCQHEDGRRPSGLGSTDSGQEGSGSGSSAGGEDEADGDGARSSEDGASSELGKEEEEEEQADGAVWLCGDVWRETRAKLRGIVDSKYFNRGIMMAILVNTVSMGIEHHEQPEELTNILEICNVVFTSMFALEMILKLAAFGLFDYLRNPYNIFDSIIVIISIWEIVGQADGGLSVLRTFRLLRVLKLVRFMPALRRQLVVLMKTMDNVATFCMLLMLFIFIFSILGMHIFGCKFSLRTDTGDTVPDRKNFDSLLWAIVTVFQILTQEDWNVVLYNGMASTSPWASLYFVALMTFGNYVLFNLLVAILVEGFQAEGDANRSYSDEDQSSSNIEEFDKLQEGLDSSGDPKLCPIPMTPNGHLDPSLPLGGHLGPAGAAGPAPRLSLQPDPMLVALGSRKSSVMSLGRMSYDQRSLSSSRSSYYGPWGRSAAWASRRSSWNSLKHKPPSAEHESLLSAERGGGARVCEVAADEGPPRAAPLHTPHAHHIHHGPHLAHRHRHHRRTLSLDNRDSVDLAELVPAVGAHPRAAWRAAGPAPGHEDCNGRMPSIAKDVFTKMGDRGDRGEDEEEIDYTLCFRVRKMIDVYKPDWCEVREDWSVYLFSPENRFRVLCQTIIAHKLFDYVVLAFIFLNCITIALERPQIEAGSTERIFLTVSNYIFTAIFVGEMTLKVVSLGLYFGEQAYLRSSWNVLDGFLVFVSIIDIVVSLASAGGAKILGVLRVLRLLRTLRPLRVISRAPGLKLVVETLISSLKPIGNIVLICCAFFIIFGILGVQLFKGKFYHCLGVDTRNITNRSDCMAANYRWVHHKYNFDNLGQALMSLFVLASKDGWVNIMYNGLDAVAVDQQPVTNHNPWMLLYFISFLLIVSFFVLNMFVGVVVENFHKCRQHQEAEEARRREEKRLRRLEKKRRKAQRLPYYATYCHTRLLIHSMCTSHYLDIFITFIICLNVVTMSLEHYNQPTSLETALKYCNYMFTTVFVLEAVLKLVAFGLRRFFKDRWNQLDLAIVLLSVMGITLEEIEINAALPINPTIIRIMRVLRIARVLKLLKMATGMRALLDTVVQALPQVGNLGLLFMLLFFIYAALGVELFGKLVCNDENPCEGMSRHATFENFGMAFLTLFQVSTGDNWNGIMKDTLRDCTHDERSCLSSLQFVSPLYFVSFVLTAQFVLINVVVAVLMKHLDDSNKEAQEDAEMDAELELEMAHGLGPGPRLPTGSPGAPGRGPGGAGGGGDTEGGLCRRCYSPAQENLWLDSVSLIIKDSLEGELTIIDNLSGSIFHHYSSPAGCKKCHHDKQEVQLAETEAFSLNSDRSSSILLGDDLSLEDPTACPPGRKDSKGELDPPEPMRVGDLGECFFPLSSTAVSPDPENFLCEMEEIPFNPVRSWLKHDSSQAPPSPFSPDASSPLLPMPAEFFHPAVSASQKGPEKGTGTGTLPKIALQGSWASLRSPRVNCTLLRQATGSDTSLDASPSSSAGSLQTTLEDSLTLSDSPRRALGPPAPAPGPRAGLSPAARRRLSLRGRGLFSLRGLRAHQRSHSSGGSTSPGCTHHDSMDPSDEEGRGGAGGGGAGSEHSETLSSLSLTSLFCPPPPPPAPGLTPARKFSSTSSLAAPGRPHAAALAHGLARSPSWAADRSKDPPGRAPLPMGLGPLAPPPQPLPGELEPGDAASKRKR
recombinant hCaV3.2 channels, sequence (O95180 whole entry): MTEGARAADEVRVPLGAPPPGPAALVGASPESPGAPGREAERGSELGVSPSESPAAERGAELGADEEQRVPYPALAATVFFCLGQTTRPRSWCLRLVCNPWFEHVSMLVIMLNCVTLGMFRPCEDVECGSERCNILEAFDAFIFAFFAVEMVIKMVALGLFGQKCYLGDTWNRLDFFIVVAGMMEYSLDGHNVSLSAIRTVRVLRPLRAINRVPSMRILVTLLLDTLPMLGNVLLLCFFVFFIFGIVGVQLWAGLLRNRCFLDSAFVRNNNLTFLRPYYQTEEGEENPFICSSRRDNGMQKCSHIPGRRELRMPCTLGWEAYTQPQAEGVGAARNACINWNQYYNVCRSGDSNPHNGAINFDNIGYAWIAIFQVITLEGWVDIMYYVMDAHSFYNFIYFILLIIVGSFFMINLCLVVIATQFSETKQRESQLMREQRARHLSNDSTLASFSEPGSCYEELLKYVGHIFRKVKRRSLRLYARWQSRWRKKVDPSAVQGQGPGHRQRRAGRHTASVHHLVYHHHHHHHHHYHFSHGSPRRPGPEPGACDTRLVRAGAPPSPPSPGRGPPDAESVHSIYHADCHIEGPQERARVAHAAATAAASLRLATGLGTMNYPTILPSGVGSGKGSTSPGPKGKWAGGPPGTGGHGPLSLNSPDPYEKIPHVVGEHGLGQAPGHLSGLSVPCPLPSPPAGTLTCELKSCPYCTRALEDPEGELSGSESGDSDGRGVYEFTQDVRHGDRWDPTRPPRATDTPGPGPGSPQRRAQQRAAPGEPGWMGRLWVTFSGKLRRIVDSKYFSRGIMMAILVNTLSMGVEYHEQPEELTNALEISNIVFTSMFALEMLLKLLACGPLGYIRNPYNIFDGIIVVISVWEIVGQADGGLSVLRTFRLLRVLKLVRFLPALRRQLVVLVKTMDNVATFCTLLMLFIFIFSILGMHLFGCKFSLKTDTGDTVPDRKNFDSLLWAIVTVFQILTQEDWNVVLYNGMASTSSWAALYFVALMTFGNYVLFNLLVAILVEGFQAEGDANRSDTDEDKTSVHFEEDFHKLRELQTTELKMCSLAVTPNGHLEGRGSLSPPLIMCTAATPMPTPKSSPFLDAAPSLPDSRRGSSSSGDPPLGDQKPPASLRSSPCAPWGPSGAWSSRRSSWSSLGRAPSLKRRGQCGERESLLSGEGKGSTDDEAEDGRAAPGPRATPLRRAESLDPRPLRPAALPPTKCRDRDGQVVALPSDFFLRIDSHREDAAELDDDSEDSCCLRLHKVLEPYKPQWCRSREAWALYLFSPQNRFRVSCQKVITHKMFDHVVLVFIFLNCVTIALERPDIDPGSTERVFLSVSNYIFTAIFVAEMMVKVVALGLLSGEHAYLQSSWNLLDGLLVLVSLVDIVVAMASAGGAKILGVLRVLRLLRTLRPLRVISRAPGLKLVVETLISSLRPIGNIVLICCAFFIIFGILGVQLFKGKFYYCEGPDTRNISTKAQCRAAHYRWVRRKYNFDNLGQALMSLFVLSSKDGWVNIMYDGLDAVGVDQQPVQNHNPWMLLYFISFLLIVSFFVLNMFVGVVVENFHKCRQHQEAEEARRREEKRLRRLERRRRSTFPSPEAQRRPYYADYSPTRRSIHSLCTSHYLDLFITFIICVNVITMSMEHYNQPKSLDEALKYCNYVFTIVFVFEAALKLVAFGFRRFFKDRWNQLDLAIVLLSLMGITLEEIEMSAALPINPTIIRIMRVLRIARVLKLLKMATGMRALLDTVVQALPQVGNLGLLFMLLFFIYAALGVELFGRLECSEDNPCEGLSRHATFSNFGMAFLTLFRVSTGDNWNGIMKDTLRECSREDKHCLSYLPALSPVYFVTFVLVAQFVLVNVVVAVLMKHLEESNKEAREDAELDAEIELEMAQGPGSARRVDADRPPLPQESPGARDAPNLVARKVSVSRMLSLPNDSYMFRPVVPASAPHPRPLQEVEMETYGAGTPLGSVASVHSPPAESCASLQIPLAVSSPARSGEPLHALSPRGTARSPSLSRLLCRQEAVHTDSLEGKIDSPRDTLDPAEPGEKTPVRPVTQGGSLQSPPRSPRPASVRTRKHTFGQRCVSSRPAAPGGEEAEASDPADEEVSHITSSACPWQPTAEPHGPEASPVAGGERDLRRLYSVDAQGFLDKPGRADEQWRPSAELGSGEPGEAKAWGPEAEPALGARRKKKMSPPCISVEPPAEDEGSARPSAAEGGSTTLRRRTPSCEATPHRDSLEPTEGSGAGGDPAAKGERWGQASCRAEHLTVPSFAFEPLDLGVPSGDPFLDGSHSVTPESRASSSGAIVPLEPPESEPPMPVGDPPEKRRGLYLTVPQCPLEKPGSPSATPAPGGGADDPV

IC50 [1]: 31.3 ± 3.4 µM | Emax ([2]; QPatch whole-cell, full inhibition, read-out: Emax value, inhibition of CaV3.3 whole-cell current): ≥ 95% | inhibition at 0.2 µM ([2]; QPatch, 200 nM compound, read-out: Inhibition of the CaV3.3 peak current): < 10% | IC50 ([2]; QPatch, 200 ms steps to Vmax (−10 mV) from holding −90 mV, n = 5, mean ± SEM, read-out: IC50 CaV3.3 whole-cell current): 15.8 ± 2.28 µM | Voltage-dependence of steady-state inactivation of CaV3.3, in words ([2]; QPatch, in the presence of compound): not significantly shifted | IC50 [3]: 39.8 ± 3.98 µM | Half-maximal steady-state inactivation V50 of CaV3.2 in the presence of compound ([4]; 0.6 µM compound, control V50 −65.40 ± 1.91 mV (n = 9), n = 4–5): −76.36 ± 1.56 mV | Emax ([4]; QPatch whole-cell, full inhibition, read-out: Emax value, inhibition of CaV3.2 whole-cell current): ≥ 95% | IC50 ([4]; QPatch, 200 ms steps to Vmax (−20 mV) from holding −90 mV, n = 4–5, mean ± SEM, read-out: IC50 CaV3.2 whole-cell current): 8.82 ± 2.3 µM | Shift of half-maximal inactivation V50 of CaV3.2 to hyperpolarized potentials ([4]; steady-state inactivation, 0.6 µM compound, versus control): 11 mV
SMILES: COC(=O)[C@H](Cc1c[nH]c2ccccc12)NC(=O)C(C)(c1c[nH]c2ccccc12)c1c[nH]c2ccccc12 [Compound 3, Methyl (2,2-di(1H-indol-3-yl)propanoyl)-L-tryptophanate]
